Holding throughout (experiment): NCI tumour cell line growth inhibition, 48 h
The subject of assay [1] is SF-539 CNS.
For assay [2], the system named is T-47D breast.
Assay [3] relates to HCT-116 colon.
Assay [4] has as its system OVCAR-5 ovarian.
For assay [5], the system named is RPMI-8226 leukemia.
The subject of assay [6] is A498 renal.
Assay [7] concerns UACC-257 melanoma.
For assay [8], the system named is NCI-H226 lung.
In assay [9] the test system is A549 NSCLC.
The subject of assay [10] is K-562 leukemia.

Where “and” joins values, the source holds several entries; their conditions need not be identical. Identical values can stand only once.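 Compound exposure: 48 hours, 5 concentrations, 96-well plates. GI50: concentration for 50% inhibition of growth. TGI denotes the concentration required for complete inhibition of growth.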

Turning to `C[C@@H]1CC[C@@]2(OC1)O[C@H]1C[C@H]3[C@@H]4CC=C5C[C@@H](O[C@@H]6O[C@H](CO)[C@@H](O[C@@H]7O[C@@H](CO)[C@H](O)[C@H]7O)[C@H](O)[C@H]6O[C@@H]6O[C@@H](C)[C@H](O)[C@@H](O)[C@H]6O)CC[C@]5(C)[C@H]4CC[C@]3(C)[C@H]1[C@@H]2C`, the GI50 in [1] is 0.758 µM; in [2], 1.39 µM; in [4], 1.29 µM; in assay [5] it was 1.09 µM; in [6], 1.28 µM; in assay [7], 1.31 µM. The results for the GI50 in [8] and in [10] were 1.33 µM and 0.873 µM, respectively. For the same compound, the TGI in assay [1] is 2.02 µM; in assay [2], 2.73 µM; in assay [3], 2.09 µM; in assay [4] it was 2.56 µM; in [5], 2.4 µM; in [6], 2.55 µM. The TGI in [7] worked out at 2.64 µM; in assay [8], 3.07 µM; in assay [9] it was 2.04 µM; in assay [10], 2.64 µM.
Turning to `CC(=O)OC1CCC2(C)C(=CC(C3C=C4CC(OC(C)=O)CCC4(C)C4=C3C3CC5OC6(CCC(C)CO6)C(C)C5C3(C)CC4)C3=C2CCC2(C)C3CC3OC4(CCC(C)CO4)C(C)C32)C1` (configuration not stated), the TGI in assay [2] stood at 42.7 µM; in assay [3], 28.4 µM; in [4], 35.9 µM; in assay [5], 16.2 µM; in assay [6], 30.8 µM; in assay [7] it was 21.9 µM. For the same compound, the figures for the TGI in [8], in [9] and in [10] were 41.5 µM, 26.5 µM and 15.2 µM, respectively.
On to `O=c1[nH]c(-c2ccc(C(F)(F)F)cc2)nc2c1CSCC2`, for which the GI50 in assay [1] was over 100 µM; in assay [2] it was 23.7 µM; in assay [3] it was over 63.7 µM; in assay [4], 79.9 µM; in [5], over 100 µM; in assay [6], 22.9 µM. The GI50 in assay [7] is over 65.2 µM; in [8] it was 30.4 µM; in [9] it was 32.9 µM; in assay [10] it was over 100 µM. Further, the TGI was over 100 µM in [1]; 98.1 µM in [2]; over 100 µM in assay [3]; over 100 µM in assay [4]; over 100 µM in assay [5]; 97.3 µM in assay [6]. Further, the TGI in assay [7], in assay [8], in [9] and in assay [10] was over 100 µM throughout.
Regarding `CCNCC(O)c1ccc(N)c([N+](=O)[O-])c1` (configuration not stated), the TGI in assay [1], in assay [2], in [3], in [4], in assay [5] and in [6] was over 100 µM throughout. Further, the TGI in [7], in assay [8], in [9] and in assay [10] was over 100 µM throughout.
For the compound `COc1ccc(C(O)c2cc3c(N)c(C(=O)Nc4cccc(Br)c4)sc3nc2C)cc1` (configuration not stated), the GI50 in assay [1] is 0.0248 µM; in assay [2], 22.5 µM; in assay [3], 0.107 µM; in assay [4], 0.216 µM; in assay [5] it was 0.371 µM; in assay [6] it was 0.0536 µM. In addition, the GI50 in [7] is 6.4 µM; in assay [8], 0.18 µM; in assay [9] it was 0.14 µM; in assay [10], 0.107 µM. Also, the TGI is 0.0833 µM in assay [1]; over 100 µM in assay [2]; 16.8 µM in [3]; over 100 µM in [4]; 33.6 µM in [5]; 0.231 µM in [6]. For the same compound, the TGI in [7] was over 50.4 µM; in [8], over 47 µM; in [9], over 100 µM; in assay [10], over 100 µM.
On to `COc1ccc(NC(=O)c2cc(OC)c(OC)c(OC)c2)cc1O`, for which the GI50 was 2.75 µM in assay [1]; 9.89 µM in [2]; 4.21 µM in assay [3]; 40.1 µM in [4]; 5.93 µM in assay [5]; 2.73 µM in [6]. Further, the values for the GI50 in assay [8], in assay [9] and in assay [10] were 13.8 µM, 4.59 µM and 0.489 µM, respectively. Also, the TGI in [1] was over 100 µM; in [2] it was over 100 µM; in assay [3], over 100 µM; in assay [4] it was over 100 µM; in assay [5] it was over 100 µM; in [6] it was 32.9 µM. Also, the TGI in [8], in [9] and in assay [10] was over 100 µM each time.
For `CN(C)c1ccc(/C=C/c2ccnc3ccccc23)cc1`, the GI50 in assay [1] is 3.14 µM; in [2], 2.57 µM; in assay [3], 3.09 µM; in [4], 6.9 µM; in assay [5], 2.77 µM; in assay [6] it was 4.03 µM. Also, the GI50 was 22.2 µM in assay [7], 3 µM in assay [8], 4.14 µM in assay [9] and 1.66 µM in assay [10]. The TGI was > 100 µM and 17.5 µM in [1]; > 100 µM and 63.8 µM in [2]; > 100 µM and 13.8 µM in [3]; > 100 µM and 49.6 µM in [4]; > 100 µM and 12.9 µM in assay [5]; > 100 µM and 24.8 µM in assay [6]. Besides, the TGI in assay [7] was > 100 µM and 71.2 µM; in [8] it was 48 µM; in assay [9] it was over 100 µM; in [10], over 100 µM.
With `COc1ccc2c(c1)OC13Oc4cc(OC)ccc4C=C1CCCC3=C2`, the GI50 is over 100 µM in [1]; 4.7 µM in assay [2]; over 100 µM in assay [4]; 6.12 µM in assay [5]; over 100 µM in assay [6]; over 100 µM in [7]. In addition, the GI50 in assay [8], in assay [9] and in assay [10] was over 100 µM throughout. Also, the TGI in assay [1], in [2], in assay [4], in [5], in [6] and in assay [7] was over 100 µM in each case. In addition, the TGI in assay [8], in [9] and in assay [10] was over 100 µM in each case.
Consider `C=C(C)C1/C=C(/C(C)C)CC[C@]2(C)O[C@@H]2CC[C@H](C)CC1=O` (some centres not stated), for which the GI50 in assay [2] is 76.7 µM; in assay [3] it was 17.7 µM; in assay [4] it was over 100 µM; in assay [5] it was 15.5 µM; in assay [6], 83.4 µM; in assay [8], over 100 µM. Further, the GI50 was 48.5 µM in assay [9] and 33 µM in [10]. In addition, the TGI in assay [2] was over 100 µM; in assay [3], 42.2 µM; in [4], over 100 µM; in assay [5], 34.4 µM; in assay [6] it was over 100 µM; in assay [8], over 100 µM. Moreover, the TGI in assay [9] and in assay [10] was over 100 µM throughout.
`CCCC[C@@H](COC(=O)N(Cc1cccs1)Cc1cccs1)NC(=O)N[C@@H](CC(=O)OC)c1ccc2c(c1)OCO2`: the GI50 in assay [1] was over 100 µM; in assay [3], over 100 µM; in assay [4] it was over 100 µM; in assay [5] it was 8.11 µM; in assay [6] it was over 100 µM; in assay [7] it was over 100 µM. In addition, the GI50 is over 100 µM in assay [8], 67.7 µM in [9] and 59.6 µM in [10]. Further, the TGI in assay [1], in assay [3], in assay [4], in assay [5], in assay [6] and in assay [7] was over 100 µM each time. Further, the TGI in assay [8], in assay [9] and in [10] was over 100 µM each time.
Take `COc1ccc(/C=C2\COc3ccc(-c4ccccc4)cc3C2=O)cc1O`: the GI50 in [1] was 2.45 µM; in assay [2], 3.28 µM; in assay [3], 1.72 µM; in [4], 4.13 µM; in [5], 3.61 µM; in assay [6] it was 2.4 µM. For the same compound, the values for the GI50 in assay [8], in assay [9] and in assay [10] were 15.3 µM, 2.96 µM and 3.6 µM, respectively. The TGI is 6.38 µM in [1]; 30.2 µM in [2]; 3.53 µM in assay [3]; 14.7 µM in assay [4]; over 100 µM in [5]; 6.1 µM in assay [6]. Also, the results for the TGI in [8], in [9] and in [10] were 32.9 µM, 18.9 µM and over 100 µM, respectively.
On to `Cn1ccnc1C(=O)/C=C/c1ccc(C(=O)Nc2nc3ccccc3[nH]2)cc1`, for which the GI50 in assay [1] was 2.7 µM; in assay [2] it was 3.37 µM; in assay [3] it was 1.5 µM; in [4] it was 5.6 µM; in assay [5], 0.81 µM; in assay [6], 4.71 µM. Moreover, the GI50 was over 25 µM in [7], 10.3 µM in assay [9] and 0.829 µM in assay [10]. Further, the TGI in assay [1] was 18 µM; in [2], over 25 µM; in assay [3] it was over 25 µM; in assay [4], over 25 µM; in assay [5] it was over 25 µM; in [6] it was over 25 µM. For the same compound, the TGI in assay [7], in assay [9] and in [10] was over 25 µM each time.
For `COC1=C(OC)CCC(/C(C#N)=C/c2ccc(OC)c(OC)c2)=C1`, the TGI in assay [1], in [3], in [4], in [5], in assay [6] and in assay [7] was over 100 µM in each case. Besides, the TGI in assay [8], in [9] and in assay [10] was over 100 µM in each case.
In the case of `O=C(/C=C/c1cccc(Cl)c1)c1ccc(Cl)cc1Cl`, the GI50 in assay [1] was 12.6 µM; in [2], 9.11 µM; in [3], 20.4 µM; in assay [4] it was 12.2 µM; in assay [5], 1.68 µM; in assay [6], 9.71 µM. For the same compound, the GI50 in assay [9] is 10.4 µM; in assay [10], 2.86 µM. Also, the TGI is 28 µM in assay [1]; 25.9 µM in assay [2]; over 50 µM in assay [3]; 27.2 µM in assay [4]; over 50 µM in assay [5]; 27.7 µM in assay [6]. For the same compound, the TGI is 29.7 µM in assay [9] and over 50 µM in assay [10].
Turning to `COc1ccc(C2S/C(=C\c3ccc(OC)cc3OC)C(=O)N2NC(=O)Cc2ccccc2)cc1` (configuration not stated), the TGI in assay [1], in [3], in assay [4], in [5], in assay [6] and in assay [7] was over 100 µM in each case. Further, the TGI in assay [8], in assay [9] and in [10] was over 100 µM in each case.
For `Fc1ccc(-c2ncn(C3CCNCC3)c2-c2ccnc(Oc3cccc(F)c3)n2)cc1`, the GI50 is 10.7 µM in assay [1]; 13.8 µM in [2]; 9.3 µM in assay [3]; 22.2 µM in assay [4]; 24.6 µM in assay [5]; over 25 µM in [6]. Moreover, the GI50 in assay [9] is 24.7 µM; in assay [10] it was 6.7 µM. For the same compound, the TGI in [1] was over 25 µM; in [2], over 25 µM; in [3] it was over 21.4 µM; in assay [4] it was over 25 µM; in assay [5], over 25 µM; in assay [6], over 25 µM. Also, the figures for the TGI in [9] and in assay [10] were over 25 µM and 16.5 µM, respectively.
Take `Cn1c(O)c(C(=O)Nc2ccc([N+](=O)[O-])cc2)c(=O)n(C)c1=S`: the TGI was 4.2 µM in [1]; 5.63 µM in [3]; 16.4 µM in assay [4]; over 100 µM in [5]; 2.17 µM in assay [6]; 6.36 µM in assay [7]. Besides, the results for the TGI in assay [8], in assay [9] and in assay [10] were 9.85 µM, 32.5 µM and over 50.9 µM, respectively.

These data come from PubChem BioAssay (NCI).
